# Reference: patent US20140288110A1, “PPAR MODULATORS” (EVOLVA SA, priority 2006, published 2014)
# Key:
# 3T3-L1 / MEFs = test: Adipocyte differentiation assay, induction, Oil Red O staining; type: cell-based, mouse; design: key to Adip.: 0: representing similar results to DPD; −1: representing even less adipocyte differentiation; +1: representing more adipocyte differentiation (both relative to DPD); details: for Adip.: adipocyte differentiation relative to DPD (SN1), Oil Red O staining; for induction of adipocyte differentiation (red staining), in words: induction assay, Oil Red O
# Procedure: This example describes an assay for determining adipocyte differention. Compounds are tested to see whether they induce adipocyte differentiation and also to see whether they inhibit adipocyte differention.
# MEFs were grown in AmnioMax basal medium (Gibco) supplemented with 7.5% Amniomax supplement C-100 (Gibco), 7.5% Fetal Bovine Serum (FBS), 2 mM Glutamine, 62.5 μg/ml penicillin and 100 μg/ml Streptomycin (growth medium). At confluence, MEFs were induced to differentiation in growth medium with the addition of 1 microM dexamethasone (Sigma) 0.5 mM isobutylmethylxanthine (Sigma), 5 microg/ml insulin (Sigma) and 10 microM test compound dissolved in DMSO or DMSO alone. Medium was subsequently renewed every 48 hrs with growth media supplemented with 5 microg/ml Insulin and ligand or DMSO.
# Briefly, to test compounds as inducers of adipocyte differentiation, 3T3-L1 are grown to confluence in DMEM with 10% Calf serum (CS), typically in 24 well dishes. At 2 days post confluence (day 0), cells are induced to differentiate with DMEM supplemented with 10% fetal bovine serum (FBS), 1 μM dexamethasone and the test compound ([…], 1 and 10 microM). BRL49653 (1.0 μM dissolved in 100% Me2SO) is used as a positive control. After 48 h, the cells are re-fed with DMEM containing 10% FBS supplemented with the test compound or the positive control. From day 4, cells are grown in DMEM with 10% FBS and are changed every second day until day 8. At day 8, cells are stained with Oil Red O as described below.
# Cells cultured as described above are used for Oil Red staining. Dishes are washed in PBS and cells were fixed in 3.7% paraformaldehyde for 1 h and stained with oil red O as described in (Hansen et al 1999). Oil red O solution stock solution is prepared by dissolving 0.5 g of Oil Red O (Sigma) in 100 ml of isopropanol. Oil re O working solution is prepared by diluting a stock solution with water (6:4) followed by filtration.
# Table II summarizes results obtained with different analogs of DPD (SN1), “0” representing similar results to DPD, “−1” representing even less adipocyte differentiation, “+1” representing more adipocyte differentiation (both relative to DPD) and “−” meaning not assayed.
# [1] = test system: PPARgamma ligand-binding domain (Gal4-PPARgammaLBD); test: PPARgamma transactivation assay (Gal4-PPARgammaLBD, UASx4-TK luc reporter); type: cell-based; details: for PPAR: PPARgamma activating activity compared with 10 microM DPD (SN1)
# Text: This is an example of a transactivation assay for determining PPAR gamma modulating activity.
# The UASx4-TK-luc reporter construct (where UAS refers to “upstream activator sequence”) contains four Gal4-responsive elements. The plasmid Gal4-PPARgammaLBD encodes a Gal4-DBD-PPARgamma-LBD fusion protein (i.e. the DNA-binding domain, DBD, of Gal4 fused to the ligand-binding domain, LBD, of PPARgamma) capable of transactivating the UASx4-TK-luc reporter plasmid by binding to the UAS. The CMV-beta-galactosidase plasmid (where CMV is cytomegalovirus) is used for normalization of experimental values.
# The cells were replated, typically in 24 well plates, so that at the time of transfection the cells are 50-70% confluent.
# Briefly, per well in a 24 well plate, UASx4TKluc (0.2 microg) Gal4-PPARgammaLBD (or pM-hPPARgamma-LBD; 0.1 microg) and CMV-beta-galactosidase (0.05 microg) in 30 μL DMEM (free of serum and antibiotics) is mixed with 30 microL DMEM (free of serum and antibiotics) containing 1 microL metafectenein. The mixture is incubated at room temperature for 20 min to allow formation of nucleic acid-lipid complexes and then approximately 60 microL is added to each well containing the 50-60% confluent cells. […] Cells were harvested after 12-24 hours and luciferase and beta-galactosidase activities were measured according to standard protocols.
# “−” means that testing was not performed.
# mPPARalphaLBD = biological target: T1, mPPARalphaLBD (Mus musculus, UniProt P23204); test: PPARalpha transactivation assay (mPPARalphaLBD); type: cell-based
# T1 construct: expressed in transfected cells
# T1 sequence (P23204 239-466 limits assumed): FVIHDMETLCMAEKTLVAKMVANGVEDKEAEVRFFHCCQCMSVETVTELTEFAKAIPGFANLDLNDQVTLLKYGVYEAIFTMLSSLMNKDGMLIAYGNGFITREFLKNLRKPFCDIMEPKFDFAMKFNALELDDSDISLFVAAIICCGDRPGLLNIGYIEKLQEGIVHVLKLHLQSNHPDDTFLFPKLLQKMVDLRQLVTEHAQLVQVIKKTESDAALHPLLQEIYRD
# Procedure: This example describes a transactivation assay for determining PPARalpha modulating activity.
# DPD and other ligands are tested for their ability to transactivate PPAR alpha essentially as described in Example 1.
Compound,Adip. (3T3-L1 / MEFs),also measured
O=C(O)CC/C=C\C[C@@H]1COC(c2coc3ccc(Cl)cc3c2=O)O[C@@H]1c1ccccc1O (stereo partly drawn) [compound 13],−1,"induction of adipocyte differentiation (red staining), in words (3T3-L1 / MEFs): low or no adipocyte differentiation; PPAR gamma modulating activity, in words [1]: higher potency"
COc1ccccc1[C@H]1OC[C@@H](C/C=C\CCC(=O)O)[C@@H](c2ccccc2O)O1 [compound 18],−1,
COc1ccc(Oc2ccccc2C2OC[C@@H](C/C=C\CCC(=O)O)[C@@H](c3ccccc3O)O2)cc1 (mixture of isomers) [compound 7],0,"induction of adipocyte differentiation (red staining), in words (3T3-L1 / MEFs): low or no adipocyte differentiation; PPAR gamma modulating activity, in words [1]: higher potency"
O=C(O)CC/C=C\C[C@@H]1COC(c2ccccc2Cl)O[C@@H]1c1ccccc1O (stereo partly drawn) [compound 27],,PPAR [1]: Inactive
COc1cccc([C@H]2OC[C@@H](C/C=C\CCC(=O)O)[C@@H](c3ccccc3O)O2)c1OC (mixture of isomers) [compound 19],0,
O=C(O)CC/C=C\C[C@@H]1COC(c2cccc3c2OCO3)O[C@@H]1c1ccccc1O (mixture of isomers) [compound 5],0,PPAR [1]: P−
O=C(O)CC/C=C\C[C@@H]1COC(c2ccccc2F)O[C@@H]1c1ccccc1O (mixture of isomers) [compound 4],0,
CC1(C)OC[C@@H](C/C=C\CCCCC(=O)O)[C@@H](c2ccccc2O)O1 [compound 36],,PPAR [1]: Inactive
"CN(CCOc1ccc(CC2SC(=O)NC2=O)cc1)c1ccccn1 (stereo not drawn) [rosiglitazone, reference compound]",,"PPAR transactivation, fold higher than with DMSO alone ([1]; Gal4-PPARgammaLBD, DPD at 10 microM): over 40 fold"
COc1ccccc1[C@H]1O[C@@H](c2c(Cl)cccc2Cl)OC[C@H]1C/C=C\CCC(=O)O [compound 28],,PPAR [1]: Inactive
CC(C)[C@H]1OC[C@@H](C/C=C\CCC(=O)O)[C@@H](c2ccccc2O)O1 [compound 20],0,
O=C(O)CC/C=C\C[C@@H]1COC(c2ccccc2-c2ccccc2)O[C@@H]1c1ccccc1O (mixture of isomers) [compound 10],0,"PPAR gamma modulating activity, in words [1]: PPAR gamma antagonist; PPAR [1]: Antagonist"
O=C(O)CC/C=C\C[C@@H]1COC(c2cccc3ccccc23)O[C@@H]1c1ccccc1O (stereo partly drawn) [compound 9],0,
O=C(O)CC/C=C\C[C@@H]1COC2(CCCCC2)O[C@@H]1c1ccccc1O [compound 6],0,
O=C(O)CC/C=C\C[C@@H]1COC(c2cccc(Cl)c2Cl)O[C@@H]1c1ccccc1O (stereo partly drawn) [compound 2],0,
O=C(O)CCCCCCC[C@@H]1CO[C@H](c2ccccc2Cl)O[C@@H]1c1ccccc1O [compound 31],0,
COc1ccccc1[C@H]1OC(C)(C)OC[C@H]1C/C=C\CCCCC(=O)O [compound 37],0,PPAR [1]: Inactive
CCCCCC1OC[C@@H](C/C=C\CCC(=O)O)[C@@H](c2ccccc2O)O1 (stereo partly drawn) [compound 11],+1,
C/C=C/CC1OC[C@@H](C/C=C\CCC(=O)O)[C@@H](c2ccccc2O)O1 (stereo partly drawn) [compound 12],−1,
O=C(O)CC/C=C\C[C@@H]1CO[C@H](C2CCCCC2)O[C@@H]1c1ccccc1O [compound 21],0,
O=C(O)CC/C=C\C[C@@H]1COC2(CCNCC2)O[C@@H]1c1ccccc1O [compound 8],−1,PPAR [1]: Boc derivative Inactive
"CC(C)(Sc1ccc(CCN(CCCCC2CCCCC2)C(=O)NC2CCCCC2)cc1)C(=O)O [GW7647, reference compound]",,increase of PPAR alpha transactivation (mPPARalphaLBD): over 2 fold
O=C(O)CCC/C=C\C[C@@H]1CO[C@H](c2ccccc2Cl)O[C@@H]1c1ccccc1O [compound 23],+1,
O=C(O)CC/C=C\C[C@@H]1CO[C@H](c2ccccc2Cl)O[C@@H]1c1ccccc1O [compound 1],0,
